Measurements reported in patent USRE38115E1, “Dextromethorphan and an oxidase inhibitor for treating intractable conditions” (Center for Neurologic Study, priority 1996, dated 2003).
Values joined by “and” are separate entries in the source; they are usually repeats but may differ in a detail not shown here. Identical values can stand only once.

Legend:
DM oxidation = assay: Urinary DM/DRP ratio with other antioxidants (Example 4); conditions: urine; for baseline DM/DRP ratio: DM alone
Experimental: In these tests, DM was administered at a constant dosage to various individuals, all were healthy volunteers. DM was taken both before and after a candidate antioxidant was taken, and urine samples were collected at appropriate times and analyzed to determine the quantity of DM and its principle metabolite dextrorphan (DRP) in the urine.
Twelve healthy volunteers were studied.
After the baseline DM/DRP value for each volunteer had been determined, a candidate antioxidant was administered. […] After an appropriate delay, a second urine sample was obtained and analyzed. Each agent was administered to two patients.

[1] = tested on: dextromethorphan metabolism; assay: Urinary DM/DR ratios (Example 1); conditions: urine, several hours after single 60 mg oral DM; ALS patients, one value per patient
Experimental: Six patients suffering from ALS were administered orally a single 60 mg dextromethorphan dose. Several hours later, a urine sample was collected, and the urine concentrations of dextromethorphan (DM) and dextrorphan (DR) were measured as described below to determine a DM/DR ratio.
To this was added 2000 units of betaglucuronidase in 1 mL of acetate buffer (0.1M, pH 5.0). The mixture was incubated for 18 hours at 37° C. and then extracted by adding 1 mL of phosphate buffer (pH 12, 0.10M) and 7 mL of n-butanol/hexane (10:90 v/v). After mixing and centrifugation, the organic layer was transferred to a clean tube, acidified with 400 uL of 0.01N HCL and 20 microliters (uL) of aqueous phase injected into a high performance liquid chromatography (HPLC) system. The HPLC used a phenyl column equilibrated with a mobile phase of acetonitrile:water (51:49 v/v) containing 10 mM KHPO4, 10 mM hexane sulfonic acid, pH 4.0 (flow rate 1.2 mL/min).
Briefly, 0.5 ml urine samples were spiked with 500 nanograms (ng) of dimethacrine. The urine pH was adjusted to […] with 0.1M acetate buffer (usually about 1.0 ml), and beta-glucuronidase was added (2000 units/ml urine). The mixture was incubated and shaken at 37° C. for 18 hours. The urine was subsequently adjusted to pH 10-11 with 1.0 mL of phosphate buffer and the urine extracted with 5 mL of dichloromethane. […]

[2] = Plasma concentrations of DM (Example 2); format: in vivo, human; conditions: DM 120 MG/DAY oral, quinidine 0; blood 10-12 hours later; one value per patient; listed as dextromethorphan
Experimental: Between 10 and 12 hours later, blood was sampled, blood plasma was isolated by centrifugation, and the plasma was analyzed to determine the DM concentration using the thebaine/HPLC method.
Between 10 and 12 hours later, blood was sampled and the plasma was analyzed for DM using thebaine/HPLC.

[3] = tested on: patients with emotional lability; conditions: patients with bilateral neurological damage; described in U.S. Pat. No. 5,206,248; cited from earlier work
debrisoquin hydroxylase = debrisoquin hydroxylase (Homo sapiens, UniProt P10635); conditions: cited from earlier work
Chain of debrisoquin hydroxylase (P10635 whole entry): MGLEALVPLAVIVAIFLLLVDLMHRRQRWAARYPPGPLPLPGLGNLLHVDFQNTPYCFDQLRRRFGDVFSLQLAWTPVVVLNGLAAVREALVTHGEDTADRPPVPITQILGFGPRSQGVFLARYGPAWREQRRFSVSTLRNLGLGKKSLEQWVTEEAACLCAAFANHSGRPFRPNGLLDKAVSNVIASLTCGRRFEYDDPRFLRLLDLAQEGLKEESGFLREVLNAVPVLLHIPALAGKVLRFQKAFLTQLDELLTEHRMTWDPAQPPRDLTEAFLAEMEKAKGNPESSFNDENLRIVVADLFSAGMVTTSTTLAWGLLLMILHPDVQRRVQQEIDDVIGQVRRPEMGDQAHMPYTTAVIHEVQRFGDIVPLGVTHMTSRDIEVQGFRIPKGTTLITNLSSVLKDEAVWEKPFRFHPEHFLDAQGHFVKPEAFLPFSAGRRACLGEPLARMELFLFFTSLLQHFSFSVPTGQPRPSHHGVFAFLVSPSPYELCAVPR

COc1ccc2c(c1)[C@@]13CCCC[C@H]1[C@@H](C2)N(C)CC3 [DM, (+)-3-methoxy-N-methylmorphinan]
baseline DM/DRP ratio (DM oxidation; extensive metabolizers, healthy volunteers): ≤ 0.06 | baseline DM/DRP ratio (DM oxidation; one poor metabolizer (control)): 1.338 | DM/DRP ratio, pre-drug baseline (DM oxidation; DM before candidate antioxidant, single subjects): 0.02 (2×) and 0.00 (3×) and 0.03 and 0.06 (2×) | DM/DR Ratio, no quinidine [1]: <0.0002 and 0.054 and 0.0048 and 0.0220 and 0.0002 and 0.0003 | DEXTROMETHORPHAN PLASMA LEVEL [2]: 9.3 NG/ML and NOT DETECTABLE (2×) and 16.5 NG/ML and 6.05 NG/ML | effect on symptoms of emotional lability [3]: not observed in any patients who received DM alone

CC(CCc1ccccc1)NCC(O)c1ccc(O)c(C(N)=O)c1 (stereo not shown) [labetalol]
Ki (debrisoquin hydroxylase): ≤ 50 µM

Cc1cccc(C)c1OCC(C)N (stereo not shown) [mexiletine]
Ki (debrisoquin hydroxylase): ≤ 50 µM

CNCCC=C1c2ccccc2CCc2ccccc21 [nortriptyline]
Ki (debrisoquin hydroxylase): ≤ 50 µM

C=CCOc1ccccc1OCC(O)CNC(C)C (stereo not shown) [oxprenolol]
Ki (debrisoquin hydroxylase): ≤ 50 µM
